Test results as given in US11117905B2, “Bisaryl heterocycles as NRF2 activators” (GLAXOSMITHKLINE INTELLECTUAL PROPERTY DEVELOPMENT LIMITED, priority 2016, dated 2021).

Test system: NQO1 specific enzyme activity in BEAS-2B cells (marker for NRF2 activation)
Assay: BEAS-2B NQO1 MTT Assay
Format: cell-based
Conditions: Homo sapiens, BEAS-2B, 48 h, NQO1 specific activity induction, 48 hours with compound
Excerpt: NAD(P)H:quinone oxidoreductase 1 (NQO1), also called DT diaphorase, is a homodimeric FAD-containing enzyme that catalyzes obligatory NAD(P)H-dependent two-electron reductions of quinones and protects cells against the toxic and neoplastic effects of free radicals and reactive oxygen species arising from one-electron reductions. The transcription of NQO1 is finely regulated by NRF2, and thus NQO1 activity is a good marker for NRF2 activation. On day one, frozen BEAS-2B cells (ATCC) were thawed in a water bath, counted, and re-suspended at a concentration of 250,000 cells/mL. Fifty microliters of cells were plated in 384 well black clear-bottomed plates. Plates were incubated at 37° C., 5% CO2 overnight. On day two, plates were centrifuged and 50 nL of compound or controls were added to the cells. Plates were then incubated at 37° C., 5% CO2 for 48 hours. On day four, medium was aspirated from the plate and crude cell lysates were made by adding 13 uL of 1× Cell Signaling Technologies lysis buffer with 1 Complete, Mini, EDTA-free Protease Inhibitor Tablet (Roche) for each 10 mL of lysis buffer. After lysis plates were incubated for 20 minutes at room temperature. Two microliters of lysate were removed for use in Cell Titer Glo assay (Promega) and MTT cocktail was prepared (Prochaska et. al. 1998) for measurement of NQO1 activity. Fifty microliters of MTT cocktail is added to each well, plate is centrifuged, and analyzed on an Envision plate reader (Perkin Elmer) using Absorbance 570 nm label for 30 minutes. Product formation was measured kinetically and the pEC50 of NQO1 specific activity induction was calculated by plotting the change in absorbance (Delta OD/min) versus the log of compound concentration followed by 3-parameter fitting.
pEC50 is the negative log of the EC50.
EC50s<1 nM (+++++), EC50s 1 nM-10 nM (++++), EC50s 10 nM-100 nM (+++), EC50s 100 nM-1 uM (++), EC50s 1 uM-10 uM (+), EC50s>10 uM (−), or were not determined (ND).

Row | SMILES | EC50
1 | CC[C@@H]1CN(Cc2cc([C@H](CC(=O)O)c3ccc4c(nnn4CC)c3C)sc2Cl)S(=O)(=O)c2ccccc2O1 [Example 5, (R)-3-(5-Chloro-4-(((R)-4-ethyl-1,1-dioxido-3,4-dihydro-2H-benzo[b][1,4,5]oxathiazepin-2-yl)methyl)thiophen-2-yl)-3-(1-ethyl-4-methyl-1H-benzo[d][1,2,3]triazol-5-yl)propanoic acid] | 10 to 100 nM
2 | CC[C@@H]1CN(Cc2cc([C@H](CC(=O)O)c3ccc4c(nnn4CC)c3C)sc2Cl)S(=O)(=O)c2cccnc2O1 [Example 6, (R)-3-(5-Chloro-4-(((R)-4-ethyl-1,1-dioxido-3,4-dihydro-2H-pyrido[2,3-b][1,4,5]oxathiazepin-2-yl)methyl)thiophen-2-yl)-3-(1-ethyl-4-methyl-1H-benzo[d][1,2,3]triazol-5-yl)propanoic acid] | 10 to 100 nM
3 | CC[C@@H]1CN(Cc2cc([C@@H](c3ccc4c(nnn4CC)c3C)C(C)(C)C(=O)O)sc2C)S(=O)(=O)c2cccnc2O1 [Example 7, (S)-3-(4-(((R)-4-Ethyl-1,1-dioxido-3,4-dihydro-2H-pyrido[2,3-b][1,4,5]oxathiazepin-2-yl)methyl)-5-methylthiophen-2-yl)-3-(1-ethyl-4-methyl-1H-benzo[d][1,2,3]triazol-5-yl)-2,2-dimethylpropanoic acid] | < 1 nM
4 | CCn1nnc2c(C)c([C@H](c3cc(CN4CC(C)(C)Oc5ncccc5S4(=O)=O)c(C)s3)C(C)(C)C(=O)O)ccc21 [Example 8, (S)-3-(4-((4,4-Dimethyl-1,1-dioxido-3,4-dihydro-2H-pyrido[2,3-b][1,4,5]oxathiazepin-2-yl)methyl)-5-methylthiophen-2-yl)-3-(1-ethyl-4-methyl-1H-benzo[d][1,2,3]triazol-5-yl)-2,2-dimethylpropanoic Acid] | 1 to 10 nM
5 | CC[C@@H]1CN(Cc2cc([C@@H](c3ccc4c(nnn4CC)c3C)C(C)(C)C(=O)O)sc2C)S(=O)(=O)c2cnccc2O1 [Example 9, (S)-3-(4-(((R)-4-Ethyl-1,1-dioxido-3,4-dihydro-2H-pyrido[4,3-b][1,4,5]oxathiazepin-2-yl)methyl)-5-methylthiophen-2-yl)-3-(1-ethyl-4-methyl-1H-benzo[d][1,2,3]triazol-5-yl)-2,2-dimethylpropanoic Acid] | < 1 nM
6 | CC[C@@H]1CN(Cc2cc([C@@H](c3ccc4c(nnn4CC)c3C)C(C)(C)C(=O)O)sc2C)S(=O)(=O)c2ccccc2O1 [Example 10, (S)-3-(4-(((R)-4-Ethyl-1,1-dioxido-3,4-dihydro-2H-benzo[b][1,4,5]oxathiazepin-2-yl)methyl)-5-methylthiophen-2-yl)-3-(1-ethyl-4-methyl-1H-benzo[d][1,2,3]triazol-5-yl)-2,2-dimethylpropanoic Acid] | < 1 nM
7 | CC[C@@H]1CN(Cc2cc([C@H](c3ccc4c(nnn4CC)c3C)C(C)(C)C(=O)O)sc2C)S(=O)(=O)c2ccccc2O1 [Example 11, (R)-3-(4-(((R)-4-Ethyl-1,1-dioxido-3,4-dihydro-2H-benzo[b][1,4,5]oxathiazepin-2-yl)methyl)-5-methylthiophen-2-yl)-3-(1-ethyl-4-methyl-1H-benzo[d][1,2,3]triazol-5-yl)-2,2-dimethylpropanoic Acid] | 10 to 100 nM
8 | CCC1CCN(Cc2nccn2Cc2cc([C@@H](c3ccc4c(nnn4CC)c3C)C(C)(C)C(=O)O)sc2C)CC1 [Example 12, (S)-3-(1-Ethyl-4-methyl-1H-benzo[d][1,2,3]triazol-5-yl)-3-(4-((2-((4-ethylpiperidin-1-yl)methyl)-1H-imidazol-1-yl)methyl)-5-methylthiophen-2-yl)-2,2-dimethylpropanoic acid] | 1 to 10 nM
9 | CCn1nnc2c(C)c([C@H](c3cc(CN4CC(=O)N(C)CC(C)(C)C4)c(C)s3)C(C)(C)C(=O)O)ccc21 [Example 15, (S)-3-(1-Ethyl-4-methyl-1H-benzo[d][1,2,3]triazol-5-yl)-2,2-dimethyl-3-(5-methyl-4-((4,6,6-trimethyl-3-oxo-1,4-diazepan-1-yl)methyl)thiophen-2-yl)propanoic Acid] | 1 to 10 nM
10 | CCn1nnc2c(C)c([C@H](c3cc(CN4C[C@H](C)Cc5ncccc5S4(=O)=O)c(C)s3)C(C)(C)C(=O)O)ccc21 [Example 16, (S)-3-(1-Ethyl-4-methyl-1H-benzo[d][1,2,3]triazol-5-yl)-2,2-dimethyl-3-(5-methyl-4-(((R)-4-methyl-1,1-dioxido-4,5-dihydropyrido[2,3-f][1,2]thiazepin-2(3H)-yl)methyl)thiophen-2-yl)propanoic Acid] | 1 to 10 nM
11 | CCn1nnc2c(C)c([C@H](c3cc(CN4C[C@H](C)Cc5ccccc5S4(=O)=O)c(C)s3)C(C)(C)C(=O)O)ccc21 [Example 17, (S)-3-(1-Ethyl-4-methyl-1H-benzo[d][1,2,3]triazol-5-yl)-2,2-dimethyl-3-(5-methyl-4-(((R)-4-methyl-1,1-dioxido-4,5-dihydrobenzo[f][1,2]thiazepin-2(3H)-yl)methyl)thiophen-2-yl)propanoic Acid] | 1 to 10 nM
12 | CCn1nnc2c(C)c([C@H](c3cc(CN4C[C@@H](C)Cc5ccccc5S4(=O)=O)c(C)s3)C(C)(C)C(=O)O)ccc21 [Example 18, (S)-3-(1-Ethyl-4-methyl-1H-benzo[d][1,2,3]triazol-5-yl)-2,2-dimethyl-3-(5-methyl-4-(((S)-4-methyl-1,1-dioxido-4,5-dihydrobenzo[f][1,2]thiazepin-2(3H)-yl)methyl)thiophen-2-yl)propanoic Acid] | < 1 nM
13 | CCn1nnc2c(C)c([C@H](c3cc(CN4C[C@@H](C)Cc5ncccc5S4(=O)=O)c(C)s3)C(C)(C)C(=O)O)ccc21 [Example 19, (S)-3-(1-Ethyl-4-methyl-1H-benzo[d][1,2,3]triazol-5-yl)-2,2-dimethyl-3-(5-methyl-4-(((S)-4-methyl-1,1-dioxido-4,5-dihydropyrido[2,3-f][1,2]thiazepin-2(3H)-yl)methyl)thiophen-2-yl)propanoic Acid] | < 1 nM
14 | CC[C@@H]1CN(Cc2cc([C@H](CC(=O)O)c3ccc4c(nnn4CC)c3C)sc2Cl)S(=O)(=O)c2cnccc2O1 [Example 22, (R)-3-(5-chloro-4-(((R)-4-ethyl-1,1-dioxido-3,4-dihydro-2H-pyrido[4,3-b][1,4,5]oxathiazepin-2-yl)methyl)thiophen-2-yl)-3-(1-ethyl-4-methyl-1H-benzo[d][1,2,3]triazol-5-yl)propanoic Acid] | 10 to 100 nM
15 | CCn1nnc2c(C)c([C@@H](c3cc(CN4C[C@@H](C)Cc5ncccc5S4(=O)=O)n(C)n3)C(C)(C)C(=O)O)ccc21 [Example 23, (R)-3-(1-Ethyl-4-methyl-1H-benzo[d][1,2,3]triazol-5-yl)-2,2-dimethyl-3-(1-methyl-5-(((S)-4-methyl-1,1-dioxido-4,5-dihydropyrido[2,3-f][1,2]thiazepin-2(3H)-yl)methyl)-1H-pyrazol-3-yl)propanoic Acid] | 1000 to 10000 nM
16 | CC[C@@H]1CN(Cc2cc([C@@H](CC(=O)O)c3ccc4c(nnn4CC)c3C)sc2C)S(=O)(=O)c2cccnc2O1 [Example 24, (S)-3-(4-(((R)-4-Ethyl-1,1-dioxido-3,4-dihydro-2H-pyrido[2,3-b][1,4,5]oxathiazepin-2-yl)methyl)-5-methylthiophen-2-yl)-3-(1-ethyl-4-methyl-1H-benzo[d][1,2,3]triazol-5-yl)propanoic Acid] | 100 to 1000 nM
17 | CC[C@@H]1CN(Cc2nc([C@@H](c3ccc4c(nnn4CC)c3C)C(C)(C)C(=O)Nc3cccnc3)sc2C)S(=O)(=O)c2cccnc2O1 [Example 25, (S)-3-(4-(((R)-4-Ethyl-1,1-dioxido-3,4-dihydro-2H-pyrido[2,3-b][1,4,5]oxathiazepin-2-yl)methyl)-5-methylthiazol-2-yl)-3-(1-ethyl-4-methyl-1H-benzo[d][1,2,3]triazol-5-yl)-2,2-dimethyl-N-(pyridin-3-yl)propanamide] | 100 to 1000 nM
18 | CC[C@@H]1CN(Cc2nc([C@@H](c3ccc4c(nnn4CC)c3C)C(C)(C)C(=O)O)sc2C)S(=O)(=O)c2cccnc2O1 [Example 26, (S)-3-(4-(((R)-4-Ethyl-1,1-dioxido-3,4-dihydro-2H-pyrido[2,3-b][1,4,5]oxathiazepin-2-yl)methyl)-5-methylthiazol-2-yl)-3-(1-ethyl-4-methyl-1H-benzo[d][1,2,3]triazol-5-yl)-2,2-dimethylpropanoic Acid] | 1 to 10 nM
19 | CC[C@@H]1CN(Cc2nc([C@@H](c3ccc4c(nnn4CC)c3C)C(C)(C)C(=O)O)sc2C)S(=O)(=O)c2cnccc2O1 [Example 27, (S)-3-(4-(((R)-4-Ethyl-1,1-dioxido-3,4-dihydro-2H-pyrido[4,3-b][1,4,5]oxathiazepin-2-yl)methyl)-5-methylthiazol-2-yl)-3-(1-ethyl-4-methyl-1H-benzo[d][1,2,3]triazol-5-yl)-2,2-dimethylpropanoic Acid] | < 1 nM
